Consider 12 compounds from US8383814B2, “Substituted tetrahydropyran spiro pyrrolidinone and piperidinone, preparation and therapeutic use thereof” (Sanofi, priority 2008, dated 2013).

In assay [1] the target is T1, rhesus (Macacca Mulatta) H3 receptor (Macaca mulatta, UniProt Q865E1).
T1 construct: pcDNA5/FRT/TO (Invitrogen) containing the rhesus monkey (Macacca Mulatta) 445 amino acid H3 receptor
In words: Rhesus H3 radioligand binding assay ([3H]-methylhistamine displacement, WGA SPA beads). To be noted: [3H]-methylhistamine 2 nM; membranes of Flp-In T-REx 293 cells expressing rhesus H3; Cheng-Prusoff. Details: species or system rhesus monkey (Macacca Mulatta). How it is done:
(§1) Rhesus H3 membranes were prepared from the Flp-In T-REx 293 Cell Line (Invitrogen) stably transfected with pcDNA5/FRT/TO (Invitrogen) containing the rhesus monkey (Macacca Mulatta) 445 amino acid H3 receptor. (Genbank #AY231164). Stably transfected cultures were amplified in tissue culture flasks by standard tissue culture methods and induced to express rhesus H3 by exposure to 500 ng/ml tetracycline (Cellgro) for 24 hours. After induction, cells were dissociated from flasks utilizing Cell Stripper (Cellgro). Cells were centrifuged (1K×g, 5 min) and pellet frozen in an ethanol-dry ice bath to disrupt cell membranes. Frozen cell pellet was re-suspended in 5 mM HEPES (pH 7.4, Invitrogen) at 10 ml/1000 cm2 of harvested cells. The cell suspension was drawn through an 18 gauge needle (2-3×) followed by a 23 gauge needle (2-3×) to further disrupt cell membranes. The cell suspension was centrifuged (40K×g, 30 min). Cell membrane pellet was re-suspended in 5 mM HEPES (pH 7.4, Invitrogen) at a final protein concentration of 10 mg/ml. Rhesus H3 membranes were stored under liquid nitrogen prior to use in [3H]-Methylhistamine and GTP S radioligand binding assays.
Rhesus H3 radioligand binding assay was performed using rhesus H3 receptor membranes (prepared as described above), [3H]-Methylhistamine (Perkin Elmer) and WGA SPA beads (wheat germ agglutinin scintillation proximity assay) beads (Amersham). The assay was performed in 96-well Opti-Plates (Packard). Each reaction contained 50 μl rhesus H3 membranes (20-30 μg total protein), 50 μl WGA SPA beads (0.1 μg) and 50 μl of 83 Ci/mmol [^3H]-Methylhistamine (final concentration 2 nM) and 50 μl of tested compound. The compounds of this invention and/or vehicle were diluted with binding buffer from 10 mM DMSO stocks. Assay plates were sealed with TopSeal (Perkin Elmer) and mixed on shaker (25° C., 1 hour). Assay plates were read on TopCount scintillation counter (Packard). Results were analyzed by Hill transformation and Ki values were determined by Cheng-Prusoff equation.

The subject of another assay is rhesus H3 receptor. Briefly: GTPγS radioligand binding assay: inhibition of rhesus H3 constitutive functional activity in cell membranes (inverse agonism). Details: concentration or dose not given beside the values. It is filed as biochemical, rhesus monkey (Macacca Mulatta). The conditions noted are these: negative value = below basal level. How it is done:
as §1

T1 sequence (Q865E1 1-445): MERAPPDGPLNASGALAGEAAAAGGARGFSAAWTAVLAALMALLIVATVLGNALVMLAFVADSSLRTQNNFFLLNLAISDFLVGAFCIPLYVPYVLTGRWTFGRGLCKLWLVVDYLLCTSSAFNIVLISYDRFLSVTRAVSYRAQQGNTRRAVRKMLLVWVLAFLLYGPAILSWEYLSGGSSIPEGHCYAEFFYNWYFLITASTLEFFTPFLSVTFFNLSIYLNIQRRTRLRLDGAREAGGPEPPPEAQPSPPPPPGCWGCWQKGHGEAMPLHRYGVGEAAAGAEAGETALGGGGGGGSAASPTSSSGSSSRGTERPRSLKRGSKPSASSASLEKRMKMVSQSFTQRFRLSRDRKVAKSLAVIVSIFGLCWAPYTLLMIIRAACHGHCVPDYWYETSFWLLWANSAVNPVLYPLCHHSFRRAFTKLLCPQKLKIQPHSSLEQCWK

The compound `C[C@@H]1CCCN1[C@@H]1CCN(c2ccc(N3CCCC4(CCOCC4)C3=O)c(F)c2)C1` [Example 39, 2-[2-Fluoro-4-((2R,3′R)-2-Methyl-[1,3′]bipyrrolidinyl-1′-yl)-phenyl]-9-oxa-2-aza-spiro[5.5]undecan-1-one] gave a Ki in assay [1] of 0.75 nM. Also, the “Inverse Agonism: % inhibition of Basal GTPγS binding in Rhesus H3” value (“Inverse Agonism: % inhibition” for short) with rhesus H3 receptor is −13%. For `CCCC1CCCN1C1CCN(c2ccc(N3CCC4(CCOCC4)C3=O)c(F)c2)C1` (centres unmarked) [Example 9, 2-[2-Fluoro-4-(2-propyl-[1,3′]bipyrrolidinyl-1′-yl)-phenyl]-8-oxa-2-aza-spiro[4.5]decan-1-one], in that order: 170 nM and −30%.

`CCCC1CCCN1C1CCN(c2ccc(N3CCC4(CCOCC4)C3=O)c(CC)c2)CC1` (centres unmarked) [Example 24, 2-{2-Ethyl-4-[4-(2-propyl-pyrrolidin-1-yl)-piperidin-1-yl]-phenyl}-8-oxa-2-aza-spiro[4.5]decan-1-one] displayed a Ki in assay [1] of 18 nM. Besides, in the assay with rhesus H3 receptor, the “Inverse Agonism: % inhibition” value is recorded as −18%. For `CC(C)C1CCCN1C1CCN(c2ccc(N3CCC4(CCOCC4)C3=O)cc2)CC1` (centres unmarked) [Example 13, 2-{4-[4-(2-Isopropyl-pyrrolidin-1-yl)-piperidin-1-yl]-phenyl}-8-oxa-2-aza-spiro[4.5]decan-1-one], in that order: 16 nM and −22%. `C[C@H]1CCCN1[C@H]1CCN(c2ccc(N3CCC4(CCOCC4)C3=O)c(C(F)(F)F)c2)C1` [Example 22, 2-[4-((2S,3′S)-2-Methyl-[1,3′]bipyrrolidinyl-1′-yl)-2-trifluoromethyl-phenyl]-8-oxa-2-aza-spiro[4.5]decan-1-one] had a Ki in assay [1] of 8.6 nM. In addition, the “Inverse Agonism: % inhibition” value in the assay with rhesus H3 receptor is recorded as −21%. For `C[C@H]1CCCN1[C@H]1CCN(c2ccc(N3CCCC4(CCOCC4)C3=O)cc2F)C1` [Example 17, 2-[3-Fluoro-4-(2-methyl-[1,3′]bipyrrolidinyl-1′-yl)-phenyl]-9-oxa-2-aza-spiro[5.5]undecan-1-one], in that order: 2.5 nM and −16%. For `Cc1cc(N2CCC(N3CCC[C@@H]3C)CC2)ccc1N1CCC2(CCOCC2)C1=O` [Example 5, 2-{2-Methyl-4-[4-((2S,3′S)-2-methyl-pyrrolidin-1-yl)-piperidin-1-yl]-phenyl}-8-oxa-2-aza-spiro[4.5]decan-1-one], in that order: 0.7 nM and −11%. For `C[C@H]1CCCN1[C@H]1CCN(c2ccc(N3CCC4(CCOCC4)C3=O)c(F)c2)C1` [Example 11, 2-[2-Fluoro-4-((2S,3′S)-2-methyl-[1,3′]bipyrrolidinyl-1′-yl)-phenyl]-8-oxa-2-aza-spiro[4.5]decan-1-one], in that order: 0.45 nM and −11%. `C[C@@H]1CCCN1[C@@H]1CCN(c2ccc(N3CCCC4(CCOCC4)C3=O)cc2)C1` [Example 35, 2-[4-((2R,3′R)-2-Methyl-[1,3′]bipyrrolidinyl-1′-yl)-phenyl]-9-oxa-2-aza-spiro[5.5]undecan-1-one]: in assay [1], the inhibition constant (Ki) stood at 0.7 nM. Also, the “Inverse Agonism: % inhibition” value in the assay on rhesus H3 receptor was −13%. In turn, `CCc1cc(N2CCC(N3CCCC3COC)CC2)ccc1N1CCC2(CCOCC2)C1=O` (centres unmarked) [Example 25, 2-{2-Ethyl-4-[4-(2-methoxymethyl-pyrrolidin-1-yl)piperidin-1-yl]-phenyl}-8-oxa-2-aza-spiro[4.5]decan-1-one] came in with a Ki in assay [1] of 4.9 nM. The “Inverse Agonism: % inhibition” value in the assay with rhesus H3 receptor was −13%. Compound `C[C@H]1CCCN1C1CCN(c2ccc(N3CCC4(CCOCC4)C3=O)c(F)c2)CC1` [Example 10, 2-{2-Fluoro-4-[4-((2S,3′S)-2-methyl-pyrrolidin-1-yl)piperidin-1-yl]-phenyl}-8-oxa-2-aza-spiro[4.5]decan-1-one] had a Ki in assay [1] of 0.16 nM. Moreover, the “Inverse Agonism: % inhibition” value in the assay with rhesus H3 receptor is reported as −33%. In assay [1], `CCc1cc(N2CCC(N3CCC[C@@H]3C)C2)ccc1N1CCC2(CCOCC2)C1=O` (some centres unmarked) [Example 26] came in with a Ki of 0.13 nM.
